Test results published in US20040019026A1, “Compounds useful for treating hypertriglyceridemia” (priority 2000, published 2004).

Legend:
[1] = background statement; cited from earlier work
Female CD-1 mice = test: Dexamethasone-induced thymic and splenic atrophy, anti-glucocorticoid effect (Example 4); format: in vivo; conditions: 1.6 mg dexamethasone s.c., sacrifice about 24 hours later
Protocol: Female CD-1 mice were obtained from Charles River Laboratories, Kingston, N.Y. at 43-45 days of age. The mice were housed five per cage in plastic shoebox cages on corn cob bedding in the Fels Animal Facility at 72°±2° F. with 50%±5% humidity and twelve hours of alternate light and darkness. The mice had ad libitum access to Purina chain 5015 and acidified water for pretreatment.
Six days later, the mice were weighed, earmarked and redistributed into six groups for treatment: 1) a control group, 2) a group treated with dexamethasone (“DEX”), a glucocorticoid which induces thymic and splenic atrophy, 3) a group treated with 200 mg/kg 16α-fluoro-5-androsten-17-one (hereinafter “drug”), 4) a group treated with 400 mg/kg of, 5) a group treated with dexamethasone and 200 mg/kg drug and 6) a group treated with dexamethasone and 400 mg/kg drug. The treatment in the groups were as follows and were conducted simuitaneously.
The control group was intubated with 0.2 mL of sesame oil for three days. On the third day after commencement of the intubation, the mice were injected subcutaneously with 0.05 mL of absolute ethanol one hour after the last treatment with sesame oil.
The second group was intubated with 0.2 mL of sesame oil for three days. On the third day after the commencement of the intubation, the mice were injected subcutaneously with 1.6 mg of dexamethasone dissolved in 0.05 mL of absolute ethanol approximately one hour after the last treatment with sesame oil.
The third and fourth groups were intubated with 200 mg/Kg and 400 mg/Kg drug, respectively, suspended in 0.2 mL of sesame oil for three days. After commencement of the intubation, the mice were injected subcutaneously with 0.05 mL of absolute ethanol approximately one hour after the last treatment with sesame oil.
The fifth and sixth groups were intubated with 200 mg/kg and 400 mg/kg, respectively, of drug, suspended in 0.2 mL of sesame oil for three days. On the third day after commencement of the intubation, the mice were injected subcutaneously with 1.6 mg of dexamethasome dissolved in 0.05 mL of absolute ethanol approximately one hour after the last treatment with sesame oil.
All of the mice were sacrificed by an overdose of CO2 approximately 24 hours after the injection of ethanol (first, third and fourth groups) or approximately 24 hours after injection with dexamethasone (second, fifth and sixth groups). The mice were weighed and the thymus was excised, cleaned of adventia, rinsed in phosphate-buffered saline (P.B.S.), blotted and weighed. The spleen was also excised, cleaned, rinsed, blotted and weighed.

Structure (SMILES): O=C(O)c1cccnc1 [Nicotinic acid, nicotinic acid]
- Effect on insulin resistance [1]: worsens insulin resistance
- Side effects [1]: intense flushing and associated pruritus

Structure (SMILES): C[C@@H]1C[C@H]2[C@@H]3CCC4=CC(=O)C=C[C@]4(C)[C@@]3(F)[C@@H](O)C[C@]2(C)[C@@]1(O)C(=O)CO [DEX, dexamethasone, reference compound]
- Spleen Wt. (Female CD-1 mice): 45.2 ± 7.5 mg
- Thymus Wt. (Female CD-1 mice): 36.8 ± 7.1 mg

Structure (SMILES): Cc1ccc(C)c(OCCCC(C)(C)C(=O)O)c1 [Gemfibrozil, gemfibrozil]
- Effect on HDL levels [1]: modestly raises HDL levels
- Effect on insulin resistance [1]: no effect on insulin resistance
- Lowering of triglycerides [1]: 25-35%
